Drawing on patent US8227601B2, “Diaryl-purines, azapurines and -deazapurines as non-nucleoside reverse transcriptase inhibitor for treatment of HIV” (priority 2005, dated 2012), this text covers EC50 for 32 compounds.

The term EC50 denotes the concentration giving half of the maximal effect.

Common to all, as to experiment: microbe, parasite or virus in culture
What all share (assay type): cell-based, human immunodeficiency virus type 1 (HIV-1)

For one assay, the system named is HIV-1 L1001-K103N. The note with it: Human immunodeficiency virus 1, read-out: EC50 L1001-K103N (nM), L1001-K103N mutant.
The next assay deals with HIV-1 Y181C. The note with it: Human immunodeficiency virus 1, read-out: EC50 Y181C (nM), Y181C mutant.
The subject of another assay is HIV-1 Y188L. The note with it: Human immunodeficiency virus 1, read-out: EC50 Y188L (nM).
In a further assay the test system is wild type HIV-1. The note with it: Human immunodeficiency virus 1, Hela-JC53, read-out: EC50 WT (nM).

Regarding `Cc1cc(C)c(Oc2nc(Nc3ccc(C#N)c(C(F)(F)F)c3)nc3[nH]cnc23)c(C)c1` [Cpd 40], the EC50 with HIV-1 L1001-K103N was 10 to 100 nM; in the assay on HIV-1 Y181C, 10 to 100 nM; with HIV-1 Y188L, over 100 nM; with wild type HIV-1 it was 10 to 100 nM.
Turning to `Cc1cc(C#N)cc(C)c1Oc1nc(Nc2ccc(C#N)cc2)nc2ccn(Cc3ccccc3)c12` [Cpd 41], the EC50 is 10 to 100 nM in the assay on HIV-1 L1001-K103N, under 10 nM with HIV-1 Y181C, 10 to 100 nM in the assay on HIV-1 Y188L and under 10 nM in the assay with wild type HIV-1.
With `Cc1cc(C#N)cc(C)c1Oc1nc(Nc2ccc(C#N)cc2)nc2cc[nH]c12` [Cpd 42], the EC50 with HIV-1 L1001-K103N, with HIV-1 Y181C, with HIV-1 Y188L and in the assay with wild type HIV-1 was under 10 nM in each case.
Consider `CCCc1nn(C)c2c(Oc3c(C)cc(C)cc3C)nc(Nc3ccc(C#N)cc3)nc12` [Cpd 43], for which the EC50 with HIV-1 L1001-K103N is 10 to 100 nM; with HIV-1 Y181C, 10 to 100 nM; in the assay with HIV-1 Y188L, over 100 nM; in the assay on wild type HIV-1, 10 to 100 nM.
On to `Cc1cc(C)c(Oc2nc(Nc3ccc(C4CC4)cc3)nc3[nH]cnc23)c(C)c1` [Cpd 44], for which the EC50 is over 100 nM in the assay on HIV-1 L1001-K103N, over 100 nM in the assay with HIV-1 Y181C, over 100 nM in the assay with HIV-1 Y188L and 10 to 100 nM with wild type HIV-1.
With `Cc1cc(C)c(Oc2nc(Nc3ccc(C#N)cc3)nc3c2ncn3C)c(C)c1` [Cpd 45], the EC50 in the assay with HIV-1 L1001-K103N is 10 to 100 nM; in the assay with HIV-1 Y181C, under 10 nM; in the assay on HIV-1 Y188L, under 10 nM; in the assay on wild type HIV-1 it was under 10 nM.
Take `CCN(c1ccc(C#N)cc1)c1nc(Oc2c(C)cc(C#N)cc2C)c2c(ccn2CC)n1` [Cpd 46]: the EC50 in the assay on HIV-1 L1001-K103N, with HIV-1 Y181C, in the assay on HIV-1 Y188L and in the assay with wild type HIV-1 was over 100 nM throughout.
As for `Cc1cc(C2CC2)cc(C)c1Oc1nc(Nc2ccc(C#N)cc2)nc2ccn(Cc3ccccc3)c12` [Cpd 47], the EC50 is over 100 nM in the assay with HIV-1 L1001-K103N, 10 to 100 nM in the assay with HIV-1 Y181C, over 100 nM in the assay on HIV-1 Y188L and 10 to 100 nM in the assay on wild type HIV-1.
As to `Cc1cc(C)c(Sc2nc(Nc3ccc(C#N)cc3)nc3ccn(Cc4ccccc4)c23)c(C)c1` [Cpd 48], the EC50 with HIV-1 L1001-K103N was over 100 nM; in the assay with HIV-1 Y181C it was 10 to 100 nM; in the assay with HIV-1 Y188L it was over 100 nM; in the assay on wild type HIV-1, 10 to 100 nM.
For the compound `Cc1cc(C#N)cc(C)c1Oc1nc(Nc2ccc(C#N)cc2)nc2c(Cl)c[nH]c12` [Cpd 49], the EC50 in the assay with HIV-1 L1001-K103N, in the assay with HIV-1 Y181C, in the assay with HIV-1 Y188L and with wild type HIV-1 was under 10 nM each time.
As to `COc1cc(C)cc(OC)c1Oc1nc(Nc2ccc(C#N)cc2)nc2[nH]cnc12` [Cpd 50], the EC50 is over 100 nM in the assay on HIV-1 L1001-K103N, under 10 nM with HIV-1 Y181C, 10 to 100 nM in the assay on HIV-1 Y188L and under 10 nM in the assay on wild type HIV-1.
As to `Cc1cc(C)c(Sc2nc(Nc3ccc(C#N)cc3)nc3cc[nH]c23)c(C)c1` [Cpd 51], the EC50 in the assay with HIV-1 L1001-K103N is 10 to 100 nM; in the assay on HIV-1 Y181C, under 10 nM; with HIV-1 Y188L it was under 10 nM; with wild type HIV-1, under 10 nM.
For `Cc1cc(C2CC2)cc(C)c1Oc1nc(Nc2ccc(C#N)cc2)nc2cc[nH]c12` [Cpd 52], the EC50 in the assay with HIV-1 L1001-K103N, with HIV-1 Y181C, in the assay with HIV-1 Y188L and in the assay on wild type HIV-1 was under 10 nM each time.
For the compound `Cc1cc(C)c(Sc2nc(Nc3ccc(C#N)cc3)nc3c(Cl)c[nH]c23)c(C)c1` [Cpd 53], the EC50 is over 100 nM with HIV-1 L1001-K103N, 10 to 100 nM in the assay on HIV-1 Y181C, 10 to 100 nM with HIV-1 Y188L and under 10 nM with wild type HIV-1.
Turning to `Cc1cc(C)c(Sc2nc(Nc3ccc(C#N)cc3)nc3c(Cl)cn(Cc4ccccc4)c23)c(C)c1` [Cpd 54], the EC50 in the assay with HIV-1 L1001-K103N is over 100 nM; with HIV-1 Y181C, 10 to 100 nM; in the assay with HIV-1 Y188L, 10 to 100 nM; with wild type HIV-1, under 10 nM.
For `Cc1cc(C)c(Sc2nc(Nc3ccc(C#N)cc3)nc3c(Br)c[nH]c23)c(C)c1` [Cpd 55], the EC50 in the assay on HIV-1 L1001-K103N was over 100 nM; in the assay with HIV-1 Y181C, 10 to 100 nM; with HIV-1 Y188L, 10 to 100 nM; in the assay with wild type HIV-1, under 10 nM.
In the case of `Cc1cc(C#N)cc(C)c1Oc1nc(Nc2ccc(C#N)cc2)nc2c(Cl)cn(Cc3ccccc3)c12` [Cpd 56], the half-maximal effective concentration (EC50) in the assay with HIV-1 L1001-K103N, in the assay with HIV-1 Y181C, in the assay with HIV-1 Y188L and in the assay on wild type HIV-1 was 10 to 100 nM throughout.
As for `Cc1cc(C)c(Oc2nc(Nc3ccc(C#N)cc3)nc3ccn(C)c23)c(C)c1` [Cpd 57], the concentration for a half-maximal effect (EC50) in the assay with HIV-1 L1001-K103N, with HIV-1 Y181C, with HIV-1 Y188L and in the assay with wild type HIV-1 was under 10 nM in each case.
For `Cc1cc(Br)cc(C)c1Oc1nc(Nc2ccc(C#N)cc2)nc2ccn(Cc3ccccc3)c12` [Cpd 58], the EC50 was over 100 nM with HIV-1 L1001-K103N, 10 to 100 nM in the assay on HIV-1 Y181C, over 100 nM in the assay with HIV-1 Y188L and 10 to 100 nM with wild type HIV-1.
For the compound `Cc1cc(C)c(Oc2nc(Nc3ccc(C#N)cc3)nc3c(Cl)cn(C)c23)c(C)c1` [Cpd 59], the EC50 in the assay with HIV-1 L1001-K103N, in the assay on HIV-1 Y181C, in the assay on HIV-1 Y188L and with wild type HIV-1 was 10 to 100 nM each time.
As for `CC(=O)c1cc(C)c(Oc2nc(Nc3ccc(C#N)cc3)nc3ccn(Cc4ccccc4)c23)c(C)c1` [Cpd 60], the EC50 in the assay with HIV-1 L1001-K103N is 10 to 100 nM; with HIV-1 Y181C it was under 10 nM; in the assay with HIV-1 Y188L, 10 to 100 nM; with wild type HIV-1, under 10 nM.
As for `CC(=O)c1cc(C)c(Oc2nc(Nc3ccc(C#N)cc3)nc3cc[nH]c23)c(C)c1` [Cpd 61], the EC50 in the assay on HIV-1 L1001-K103N, in the assay with HIV-1 Y181C, in the assay with HIV-1 Y188L and in the assay with wild type HIV-1 was under 10 nM throughout.
Consider `Cc1cc(Cl)cc(C)c1Oc1nc(Nc2ccc(C#N)cc2)nc2c(Cl)cn(C)c12` [Cpd 62], for which the 50% effective concentration (EC50) with HIV-1 L1001-K103N, in the assay with HIV-1 Y181C, with HIV-1 Y188L and with wild type HIV-1 was under 10 nM each time.
Regarding `Cc1cc(Cl)cc(C)c1Oc1nc(Nc2ccc(C#N)cc2)nc2ccn(Cc3ccccc3)c12` [Cpd 63], the EC50 in the assay with HIV-1 L1001-K103N is over 100 nM; in the assay with HIV-1 Y181C, 10 to 100 nM; in the assay with HIV-1 Y188L, over 100 nM; in the assay on wild type HIV-1, 10 to 100 nM.
Turning to `Cc1cc(C)c(Oc2nc(Nc3ccc(C#N)cc3)nc3ccn(Cc4ccccc4)c23)c(C)c1` [Cpd 64], the EC50 in the assay with HIV-1 L1001-K103N was over 100 nM; in the assay on HIV-1 Y181C, 10 to 100 nM; in the assay on HIV-1 Y188L it was over 100 nM; with wild type HIV-1, under 10 nM.
In the case of `Cc1cccc(C)c1Oc1nc(Nc2ccc(C#N)cc2)nc2cc[nH]c12` [Cpd 65], the EC50 with HIV-1 L1001-K103N was over 100 nM; with HIV-1 Y181C, under 10 nM; in the assay with HIV-1 Y188L, under 10 nM; in the assay with wild type HIV-1 it was under 10 nM.
On to `Cc1cc(Cl)cc(C)c1Oc1nc(Nc2ccc(C#N)cc2)nc2cc[nH]c12` [Cpd 66], for which the EC50 in the assay with HIV-1 L1001-K103N, in the assay with HIV-1 Y181C, with HIV-1 Y188L and in the assay with wild type HIV-1 was under 10 nM each time.
Take `CC(=O)c1cc(C)c(Oc2nc(Nc3ccc(C#N)cc3)nc3c(Cl)c[nH]c23)c(C)c1` [Cpd 67]: the EC50 in the assay with HIV-1 L1001-K103N is under 10 nM; in the assay on HIV-1 Y181C it was under 10 nM; in the assay on HIV-1 Y188L, 10 to 100 nM; in the assay with wild type HIV-1, under 10 nM.
In the case of `Cc1cc(C#N)cc(C)c1Oc1nc(Nc2ccc(C#N)cc2)nc2ccn(C)c12` [Cpd 68], the EC50 in the assay on HIV-1 L1001-K103N, in the assay on HIV-1 Y181C, in the assay on HIV-1 Y188L and with wild type HIV-1 was under 10 nM throughout.
`Cc1cc(C#N)cc(C)c1Oc1nc(Nc2ccc(C#N)cc2)nc2c(Cl)cn(C)c12` [Cpd 69]: the EC50 in the assay on HIV-1 L1001-K103N, in the assay with HIV-1 Y181C, with HIV-1 Y188L and with wild type HIV-1 was under 10 nM in each case.
As to `Cc1cc(C#N)cc(C)c1Oc1nc(Nc2ccc(C#N)cc2)nc2c(Br)cn(C)c12` [Cpd 70], the 50% effective concentration (EC50) in the assay with HIV-1 L1001-K103N, with HIV-1 Y181C, with HIV-1 Y188L and in the assay on wild type HIV-1 was under 10 nM each time.
As for `Cc1cc(Br)cc(Cl)c1Oc1nc(Nc2ccc(C#N)cc2)nc2cc[nH]c12` [Cpd 71], the EC50 in the assay with HIV-1 L1001-K103N, in the assay on HIV-1 Y181C, with HIV-1 Y188L and with wild type HIV-1 was under 10 nM each time.
